The species entered for assay [1] is Homo sapiens. The assay can be described thus: Tested for inhibition of platelet aggregation induced by A-23187; Inactive. The format is functional, organism-based.
For assay [2], the species on record is Homo sapiens. The experiment in a line: Tested for inhibition of platelet aggregation induced by ADP; Inactive. It is filed as functional, organism-based.
For assay [3], the species on record is Homo sapiens. The experiment in a line: Inhibitory activity against human platelet aggregation. The format is functional, organism-based.
A further assay deals with T1, Thromboxane A2 receptor (Homo sapiens, UniProt P21731).
T1 sequence (P21731 whole entry): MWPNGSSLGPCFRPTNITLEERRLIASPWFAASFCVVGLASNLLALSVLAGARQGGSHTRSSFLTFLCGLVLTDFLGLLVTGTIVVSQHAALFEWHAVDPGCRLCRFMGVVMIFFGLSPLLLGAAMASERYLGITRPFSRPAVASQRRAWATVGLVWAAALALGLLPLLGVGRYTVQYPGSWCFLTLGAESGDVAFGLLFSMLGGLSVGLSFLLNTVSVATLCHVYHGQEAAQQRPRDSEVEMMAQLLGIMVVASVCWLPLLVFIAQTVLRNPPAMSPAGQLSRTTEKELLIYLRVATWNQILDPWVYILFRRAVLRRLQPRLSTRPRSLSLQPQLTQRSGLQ
The assay can be described thus: Binding affinity to human platelet TXA2 receptors as ability to displace binding [3H]SQ-29,548.

By IC50 is commonly meant the concentration that gives 50% inhibition. Low values mean greater potency in that assay, high ones weaker potency in that assay. What is called Ki is a dissociation constant, usually derived from enzyme kinetics or from competition with a known ligand.

The source made the active and inactive calls. The calls are words filed in the database; no cut-off is given here.

Turning to `[N-]=[N+]=Nc1ccc(CCCC(=O)NCC(=O)NCC2C3CCC(O3)C2C/C=C\CCCC(=O)NNC(=O)CCCC[C@H]2SC[C@H]3NC(=O)N[C@H]32)cc1` (some centres undefined), the result in the assay filed under Homo sapiens [1] and in the assay filed under Homo sapiens [2] was inactive. In the assay listed under Homo sapiens [3], this molecule yielded a concentration for half-maximal inhibition (IC50) of 500 nM. Affinity on Thromboxane A2 receptor was put at a Ki of 625 nM.

The values above are taken from ChEMBL document CHEMBL1131849, “Synthesis and biological characterization of sqbazide, a novel biotinylated photoaffinity probe for the study of the human platelet thromboxane A2 receptor” (Bioorg Med Chem Lett, 1999).
